The target of the assay is BRIL-δOR(ΔN/ΔC) (Sf9) (Homo sapiens, UniProt P41143, P37S). It counts as binding.
Chain of BRIL-δOR(ΔN/ΔC) (Sf9) (P41143 36-338 P37S): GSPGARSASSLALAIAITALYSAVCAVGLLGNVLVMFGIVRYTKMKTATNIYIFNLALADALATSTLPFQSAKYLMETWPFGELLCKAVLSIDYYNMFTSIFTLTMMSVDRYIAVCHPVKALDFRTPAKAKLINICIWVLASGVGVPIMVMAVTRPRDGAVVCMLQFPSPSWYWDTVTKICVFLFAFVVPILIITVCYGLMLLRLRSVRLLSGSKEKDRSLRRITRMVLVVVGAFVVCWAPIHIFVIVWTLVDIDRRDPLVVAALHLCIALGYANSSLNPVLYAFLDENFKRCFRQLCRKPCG

As to `[Na+]` [sodium], the “Hill Coefficient” value was determined as 0.79 ± 0.02, the “Na+ pKB ± SEM” value came out at 1.79 ± 0.11, the “pα ± SEM” value was found to be 0.86 ± 0.05 and the α was 0.138. Moreover, the Kb (read-out: Na+ KB) came to 15.9 mM.

These data come from paper PMC3931418 (Nature, 2014).
